# Data reported in patent publication US12459930B2, “Compounds for the inhibition of unregulated cell growth” (GODAVARI BIOREFINERIES LIMITED, priority 2018, dated 2025).
# Read-outs that look alike come from different tables or passages of the source.
# Key:
# [1] = tested on: MDAMB231 spheres (cancer stem cells); assay: In vitro sphere-forming assay (cancer stem cells), MDAMB231 in Mammosphere media; conditions: for 3D sphere count of MDAMB231 in Mammosphere media: 2000 cells/well, n = 6 ± S.D
# Description: (§3) In Vitro Sphere-forming Assay: Sphere assay measures the ability of cancer stem cells (CSCs) to form spheres in specially designed serum-free medium.
# Mammosphere Media Preparation (For 100 mL): 1 g methyl cellulose autoclaved with magnetic stirrer, 100 ml plain media (MEBM) was added and dissolved under magnetic stirring. After complete dissolution FGF—80 μL, EGF—40 μL, Penstrep—1 mL, Heparin—400 μL was added.
# (§4) Procedure—The cells were trypsinised and made into single-cell suspension by passing through cell strainers (100 μl and 40 μl, respectively), The cells were diluted at a concentration of 2000 cells/100 μL and suspended in either Mammosphere (for breast cell lines) or Prostosphere (for prostate cell lines). 100 μL of this suspension was added into each well of 96-well suspension plates and incubated at 37 C, 50 CO2 for 24 hrs. Appropriate concentrations of the drugs (2 L) were added into respective wells with 100 μL of stem cell culture medium. Plates were incubated at 37° C., 50% CO2 for 72 hrs. After incubation, 2.5 μL of the respective drug concentration and 50 μL of stem cell culture medium were added into each well and the plates were further incubated at 37° C., 500 CO2 for 72 hrs. 3 μL of the respective drug concentration was added with 50 μL of stem cell culture medium again after incubation and plates were reincubated for 72 hrs at 37° C., 500 CO2. Number of primary spheres formed for each concentration were counted. The spheres were converted to 0 viability of spheres compared to untreated (Growth Control with DMSO, GCD).
# [2] = tested on: PC3 spheres (cancer stem cells); conditions: human, 216 h
# Excerpt: as §3
# (§5) Materials and Reagents:50×B27 Supplement (Life Technologies, Invitrogen, Catlog No.: 17502-044), Fibroblast Growth Factor (FGF) (Sigma-Aldrich, Catlog No.: F029125), Epidermal Growth Factor (EGF) (Sigma-Aldrich, Catlog No.: E9644), Insulin (Sigma, Catlog No.: 19278), Dulbecco's Modified Eagle Medium/F12 (HiMedia Catlog No.: AL139-6), Dulbecco's Phosphate Buffered Saline (HiMedia Catlog No.: TL1006), Trypan Blue (TC193), Prostate Epithelial Media (LONZA, Catlog No.: CC-3166) MEGM (LONZA, Catlog No.: CC-3051), Heparin (Sigma, Catlog No.: H3393), Penstrep (HiMedia, Catlog No.: A002)
# (§6) Prostosphere Media Preparation (For 100 mL): 1 g methyl cellulose autoclaved with magnetic stirrer, 100 mL plain media (Prostate Epithelial Basal Medium) was added and dissolved, under magnetic stirring. After complete dissolution, Insulin—40 μL, B27—2 mL, EGF—80 μL, Penstrep—1 ml was added.
# as §4
# [3] = tested on: DU145 prostate cancer cell line; assay: In vitro antiproliferative assay (MTT assay), DU145; format: cell-based; conditions: 48 hrs drug incubation, read-out: IC50 in micromolar, DU145 (MTT assay)
# In short: (§1)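 Metabolic reduction of MTT served as the growth measure. Plated cells rested 24 h, received compound for 48 h at 37 °C under 5% CO2, then MTT at 0.5 mg/ml for 4 h before DMSO solubilization.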
# [4] = tested on: PC3 spheres (cancer stem cells); assay: In vitro sphere-forming assay (cancer stem cells), PC3 in Prostosphere media; conditions: for 3D sphere count of PC3 in Prostosphere media: 2000 cells/well, n = 6 ± S.D; for viability at 0.0025 µM: read-out: % Viability of spheres (PC3), 0.0025 uM; for viability at 0.025 µM: read-out: % Viability of spheres (PC3), 0.025 uM; for viability at 0.25 µM: read-out: % Viability of spheres (PC3), 0.25 uM; for viability at 2.5 µM: read-out: % Viability of spheres (PC3), 2.5 uM; for viability at 25 µM: read-out: % Viability of spheres (PC3), 25 uM
# Excerpt: as §3, §5, §6, §4
# [5] = tested on: PC3 prostate cancer cell line; assay: Soft agar colony-formation assay, PC3; format: cell-based; conditions: 168 h, 1 week, Alamar Blue, read-out: IC50 in micromolar, PC3 (Soft Agar Assay)
# In short: (§2)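 Cells were embedded with drug in a top soft-agar layer over an agar base in 96-well format. Colonies grew for 1 week at 37 °C, 5% CO2, with medium feeding at day 3. Alamar Blue was added for 24 h, absorbance read at 630 nm, and log percent viability plotted against log drug concentration.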
# [6] = tested on: MDAMB231 breast cancer cell line; assay: In vitro antiproliferative assay (MTT assay), MDAMB231; format: cell-based; conditions: 48 hrs drug incubation, read-out: IC50 in micromolar, MDAMB231 (MTT assay)
# In short: as §1
# [7] = tested on: MDAMB231 breast cancer cell line; assay: Soft agar colony-formation assay, MDAMB231; format: cell-based; conditions: Homo sapiens, MDA-MB-231, 168 h, 1 week, Alamar Blue, read-out: IC50 in micromolar, MDAMB231 (Soft Agar Assay)
# In short: as §2
# [8] = tested on: PC3 prostate cancer cell line; assay: In vitro antiproliferative assay (MTT assay), PC3; format: cell-based; conditions: 48 h, 48 hrs drug incubation, read-out: IC50 in micromolar, PC3 (MTT assay)
# In short: as §1
# [9] = Homo sapiens, MDA-MB-231, read-out: % Viability of spheres (MDAMB231)
Compound,3D sphere count of MDAMB231 in Mammosphere media ([1]; 0.0025 uM),3D sphere count of MDAMB231 in Mammosphere media ([1]; 0.025 uM),3D sphere count of MDAMB231 in Mammosphere media ([1]; 0.25 uM),3D sphere count of MDAMB231 in Mammosphere media ([1]; 2.5 uM),3D sphere count of MDAMB231 in Mammosphere media ([1]; 25 uM),"viability at 0.0025 µM [1, 9] [%]","viability at 0.025 µM [1, 9] [%]","viability at 0.25 µM [1, 9] [%]","viability at 2.5 µM [1, 9] [%]","viability at 25 µM [1, 9] [%]","IC50 ([3]; Homo sapiens, DU-145, 48 h) [µM]",3D sphere count of PC3 in Prostosphere media ([4]; 0.0025 uM),3D sphere count of PC3 in Prostosphere media ([4]; 0.025 uM),3D sphere count of PC3 in Prostosphere media ([4]; 0.25 uM),3D sphere count of PC3 in Prostosphere media ([4]; 2.5 uM),3D sphere count of PC3 in Prostosphere media ([4]; 25 uM),viability at 0.0025 µM ([4]; GCD = 100% viability) [%],IC50 [5] [µM],IC50 [7] [µM],IC50 [8] [µM],also measured
"COc1cc2c(OCCCCN3CCOCC3)c3c(c(-c4ccc5c(c4)OCO5)c2cc1OC)C(=O)OC3.Cl [Formula VII, 4-(4-morpholinobutoxy)-9-(benzo[d][1,3]dioxol-5-yl)-6,7-dimethoxynaphtho[2,3-c]furan-1(3H)-one Hydrochloride]",58(±3),47(±3),36(±3),29(±3),21(±2),81,66,50,41,29,2.34,56(±3),46(±3),41(±3),37(±2),32(±3),69,2.7,2.05,2.75,% Viability of spheres (PC3) ([2]; 0.025 µM): 59(±3) %; % Viability of spheres (PC3) ([2]; 0.25 µM): 50(±2) %; % Viability of spheres (PC3) ([2]; 2.5 µM): 44(±2) %; % Viability of spheres (PC3) ([2]; 25 µM): 34(±3) %; IC50 ([6]; hydrochloride): 3.27 µM
"O=C1OCc2c1c(-c1ccc3c(c1)OCO3)c1cc3c(cc1c2OCCN1CCOCC1)OCO3 [Formula XI, 4-(2-morpholinoethoxy)-9-(benzo[d][1,3]dioxol-5-yl)-6,7-methylenedioxynaphtho[2,3-c]furan-1(3H)-one]",51(±3),41(±3),31(±3),20(±3),0(±0),64,52,39,25,0,8.18,51(±3),43(±3),32(±4),21(±3),0(±0),62,5.12,2.7,12.6,"viability at 0.025 µM ([4]; GCD = 100% viability): 52%; viability at 0.25 µM ([4]; GCD = 100% viability): 39%; viability at 2.5 µM ([4]; GCD = 100% viability): 25%; viability at 25 µM ([4]; GCD = 100% viability): 0%; IC50 ([6]; Homo sapiens, MDA-MB-231, 48 h): 3.2 µM"
"c1ccc2c(-c3ccc4c(c3)OCO4)ccc(OCCCCCCN3CCOCC3)c2c1 [Formula IV, 4-(6-(1-(benzo[d][1,3]dioxol-5-yl)naphthalen-4-yloxy)hexyl)morpholine]",–,40(±2),35(±2),25(±2),11(±2),–,50,44,31,13,–,–,44(±3),35(±3),32(±3),22(±3),–,7.5,2.59,3.79,"3D sphere count of MDAMB231 in Mammosphere media ([1]; 250 uM): 0(±0); viability at 250 µM [1, 9]: 0%; IC50 [3]: 3.16 µM; 3D sphere count of PC3 in Prostosphere media ([4]; 250 uM): 0(±0); viability at 0.025 µM ([4]; GCD = 100% viability): 59%; viability at 0.25 µM ([4]; GCD = 100% viability): 47%; viability at 2.5 µM ([4]; GCD = 100% viability): 43%; viability at 25 µM ([4]; GCD = 100% viability): 29%; viability at 250 µM ([4]; read-out: % Viability of spheres (PC3), 250 uM, GCD = 100% viability): 0%; IC50 [6]: 3.86 µM"
